Consider 6 molecules from patent US20090088380A1, “GHRH ANALOGS AND THERAPEUTIC USES THEREOF” (priority 2007, published 2009).

The nature of data set [1]: In vitro proteolysis assay in human serum. To be noted: human serum. Type of data set: in vitro ADME.
Description: (§1) Proteolysis was stopped by adding 800 μl of ice-cold stop buffer (potassium-phosphate buffer, acidified to pH 0.8 with trifluoroacetic acid (TFA) and boiling 5 min (rat serum only). After centrifugation (12000 g, 5 min, 4° C.) (rat serum only), serum-peptide mixtures were passed through a conditioned Sep-Pak C-18 cartridge to extract native GHRH or a GHRH analog residual concentrations from serum proteins. The native GHRH or the analog was eluted in 2 ml of 50% acetonitrile-0.01% TFA/50% 0.01% aqueous TFA. 200 μl of extracted peptide, representing 1 μg of GHRH or analog at time 0, was quantified by analytical HPLC, using one μ-Bondapak C18 column (10 μm particle size, 0.39×15 cm) (rat serum) or two C18 columns in series (human serum and plasma) and a binary solvent system composed of NaClO4 0.01 M, pH 2.5 and acetonitrile. A linear gradient from 30 to 60% acetonitrile over 45 min (rat serum) or 30 to 50% (human serum and plasma) was used. Elution of intact peptide was monitored at 214 nm and residual concentration determined by assessment of peak surface areas.
A short description of data set [2]: In vitro proteolysis assay in rat serum. The class given is in vitro ADME. The following applies: incubation 0 min.
Description: as §1
Data set [3] deals with rat GHRH receptor (rat) (UniProt Q02644). Nature of the data set: competition with [125I-Tyr10]hGHRH(1-44)-NH2, rat anterior pituitary membrane preparations.
Data set [4] addresses human GHRH receptor (human) (UniProt Q02643). Nature of the data set: competition with [125I-Tyr10]hGHRH(1-44)NH2, BHK cell membrane preparations expressing the human GHRH receptor. The following applies: for Relative binding affinity (R1) in comparison with hGHRH(1-29)NH2: scale: ratio IC50 of hGHRH.
In data set [5] the test system is Rat Growth Hormone. Briefly: In vivo GH secretion in adult female Sprague-Dawley rats, single SC or IV injection, RIA. To be noted: 0.03 mg/kg BW IV. The procedure:
In order to assess such use of the GHRH analogs, the following experiments were undertaken. More specially, the goal was to assess the pharmacodynamic and pharmacokinetic profiles and acute toxicity of GHRH analog #5 when administered once by subcutaneous or intravenous injection to female Sprague-Dawley rats followed by a 14-day observation period and the pharmacodynamic profile in a male Beagle dog when the GHRH analog was administered at escalating doses to the same dog by subcutaneous injection with at least 2-day washout period. The above GHRH analog is a variation of a synthetic acetate salt of an amidated synthetic 29-amino acid peptide that corresponds to the amino-terminal segment of the naturally-occurring human growth hormone—releasing hormone (GHRH) with four amino acid substitutions in positions 2, 10, 15, and 22.
Human GHRH analog #5 in 0.9% sodium chloride for injection USP was administered once either by intravenous (IV) or subcutaneous (SC) injection to female rats followed by a 14-day observation period, as shown in Table 2. Prior to administration, all dosing formulations were filtered using a 0.22 μm filter to ensure sterility. The actual amount of GHRH analog #5 administered was calculated and adjusted based on the animal's most recent body weight. Dosing started at approximately the same time each day, commencing at 9:00 am ±30 minutes.
For pharmacodynamic investigations, blood samples (approximately 1.3 ml) were collected from 2 animals per group per time point (maximum 3 time points/animal) via a jugular venipuncture at the following time points: […] All blood samples were collected into potassium EDTA tubes and centrifuged under refrigeration (2 to 8° C., 1500 g for 10 minutes).
Rat Growth Hormone Determination • Plasma GH was determined by Linco Diagnostic Services using their own kit. Linco's Rat Growth Hormone radioimmunoassay kit (RIA) (RGH-45HK) is intended for the quantitative determination of Rat Growth Hormone in serum, plasma, and tissue culture media. It is a completely homologous assay since the antibody was raised against recombinant Rat Growth Hormone and both the tracer and the standard are prepared with the same recombinant Rat Growth Hormone. The kit includes standards, antibody, tracer, quality controls, precipitating reagents and buffer necessary to complete a RIA. The assay was conducted under the following conditions: overnight; equilibrium incubation at room temperature; sample volume: 100 μl serum, plasma, or cell culture media. The label used was 125I-Rat Growth Hormone (20,000 CPM/tube).

Data set [6] concerns Canine Growth Hormone. Nature of the data set: In vivo GH secretion in a male Beagle dog, escalating SC doses, RIA. The following applies: 0.01 mg/kg BW SC. An excerpt:
In order to assess such use of the GHRH analogs, the following experiments were undertaken. […] The above GHRH analog is a variation of a synthetic acetate salt of an amidated synthetic 29-amino acid peptide that corresponds to the amino-terminal segment of the naturally-occurring human growth hormone—releasing hormone (GHRH) with four amino acid substitutions in positions 2, 10, 15, and 22.
Prior to administration, all dosing formulations were filtered using a 0.22 μm filter to ensure sterility. […] Dosing started at approximately the same time each day, commencing at 9:00 am ±30 minutes.
For pharmacodynamic investigations, blood samples (approximately 1.0 ml) were collected from the dog on each treatment day via a jugular venipuncture at the following time points: pre-dose, 7, 15, 22, 30, 45, and 60 minutes post dosing. All blood samples were collected into potassium EDTA tubes and centrifuged under refrigeration (2 to 8° C., 1500 g for 10 minutes).
Plasma GH was determined by Linco Diagnostic Services using their own kit. Linco's Porcine/Canine Growth Hormone radioimmunoassay kit (RIA) (PGH-46HK) has been developed to quantitate Growth Hormone in plasma, serum, and tissue culture media. It is a completely homologous assay since the antibody was raised against recombinant Porcine Growth Hormone and both the standard and tracer are prepared with recombinant Porcine Growth Hormone. Since the amino acid sequences of Porcine Growth Hormone and Canine Growth Hormone are identical, this assay developed for Porcine Growth Hormone measures Canine Growth Hormone levels with equal efficiency. All components are included (standards, antibody, tracer, quality controls, precipitating reagents and buffer) necessary to complete a RIA. The assay was conducted under the following conditions: overnight; equilibrium incubation at room temperature; sample volume: 100 μl serum, plasma, or cell culture media.

As to `CC[C@H](C)[C@H](NC(=O)[C@H](C)NC(=O)[C@H](CC(=O)O)NC(=O)[C@H](C)NC(=O)[C@@H](N)Cc1ccc(O)cc1)C(=O)N[C@@H](Cc1ccccc1)C(=O)N[C@H](C(=O)N[C@@H](CC(N)=O)C(=O)N[C@@H](CO)C(=O)N[C@@H](Cc1ccc(O)cc1)C(=O)N[C@@H](CCCNC(=N)N)C(=O)N[C@@H](CCCCN)C(=O)N[C@H](C(=O)N[C@@H](CC(C)C)C(=O)NCC(=O)N[C@@H](CCC(N)=O)C(=O)N[C@@H](CC(C)C)C(=O)N[C@@H](CO)C(=O)N[C@@H](C)C(=O)N[C@@H](CCCNC(=N)N)C(=O)N[C@@H](CCCCN)C(=O)N[C@@H](CC(C)C)C(=O)N[C@@H](CC(C)C)C(=O)N[C@@H](CCC(N)=O)C(=O)N[C@@H](CC(=O)O)C(=O)N[C@H](C(=O)N[C@@H](CCSC)C(=O)N[C@@H](CO)C(=O)N[C@@H](CCCNC(=N)N)C(N)=O)[C@@H](C)CC)C(C)C)[C@@H](C)O` [hGHRH(1-29)NH2, reference compound], the “Mean residual amount (%)” value is 100% in data set [1] (IT 0 min) and “disappeared totally” in data set [1] (IT 420 min). In addition, the “Residual concentration (% of initial concentration)” value in data set [2] is listed as 100 ± 0 % of initial concentration.

Molecule “[Ala8, Ala9, Ala15, Ala22] hGHRH(1-29)-NH2 (peptide)” had a Relative binding affinity in rat anterior pituitary (relative to hGHRH(1-29)-NH2) in data set [3] of 7.74. For the same molecule, in data set [4], the half-inhibitory concentration (IC50) worked out at 0.77 nM and the Relative binding affinity (R1) in comparison with hGHRH(1-29)NH2 was 3.7.

In turn, “[D-Ala2, Ala8, Ala15, Lys22] hGHRH(1-29)-NH2 (peptide)” gave a Relative binding affinity in rat anterior pituitary (relative to hGHRH(1-29)-NH2) in data set [3] of 13.3. Moreover, in data set [4], the IC50 came to 0.033 nM and the Relative binding affinity (R1) in comparison with hGHRH(1-29)NH2 is 499.

“[D-Ala2, Ala8, D-Tyr10, Ala15, D-Lys21, Lys22] hGHRH(1-29)-NH2 (peptide)” registered a Relative binding affinity in rat anterior pituitary (relative to hGHRH(1-29)-NH2) in data set [3] of 5. In addition, in data set [4], the IC50 is 37 nM and the Relative binding affinity (R1) in comparison with hGHRH(1-29)NH2 was 0.05.

Regarding “[D-Ala2, D-Tyr10, Lys22] hGHRH(1-29)-NH2 (peptide)”, in data set [3], the Relative binding affinity in rat anterior pituitary (relative to hGHRH(1-29)-NH2) was determined as 4.9. In data set [4], the IC50 was found to be 0.0063 nM and the Relative binding affinity (R1) in comparison with hGHRH(1-29)NH2 worked out at 239.

hGHRH(1-44)NH2 [reference compound]: the “Plasma Rat Growth Hormone” value came to 43.7 ng/mL in data set [5] (4 min); 83.9 ng/mL in data set [5] (10 min); 27.9 ng/mL in data set [5] (15 min); 14.1 ng/mL in data set [5] (45 min); 21.7 ng/mL in data set [5] (300 min); 20.2 ng/mL in data set [5] (−120 min). Further, the “GH AUC 45 min” value in data set [5] (in ng·min/mL (unit assumed)) was 1380. Besides, in data set [5] (in ng·min/mL (unit assumed)), the “GH AUC 300 min” value was 5754. Further, the “Canine Growth Hormone” value in data set [6] (0 min) came out at 5 ng/mL; in data set [6] (7 min) it was 1 ng/mL; in data set [6] (15 min) it was 1.99 ng/mL; in data set [6] (22 min), 4 ng/mL; in data set [6] (30 min), 5 ng/mL; in data set [6] (45 min), 3 ng/mL. Also, the “Canine Growth Hormone” value in data set [6] (60 min) came out at 1.99 ng/mL.
